# Measurements from patent publication US7767240B2, “Microbiological control in poultry processing” (priority 2001, dated 2010).
# Experiments:
# [1] = test system: Escherichia coli field strain; experiment: Whole bird bacteria reduction, chill tank (Example 2); assay type: cell-based; conditions: 1.5 h chill tank
# Description: The trial events and experimental design used were as follows: • a) For all treatments a total of 190 birds were processed in a normal fashion. Each treatment involved use of 10 birds. • b) A warm (100° F.) bath was prepared containing 5×10^4 DelMarVa (Delaware-Maryland farm area) field Escherichia coli stain bacteria per mL. At least 200 mL of total bath fluid was provided for each bird. • c) All birds (both controls and treated) were randomly immersed into the warm bath. Both the inside and outside carcass areas were immersed to assure complete coverage. • d) Each separate chill tank water solution (normal tap water adjusted pH to 8.5, ice added to produce temperatures of <45° F.) contained 2×10^3 per mL bacteria. • e) The chill tank water solutions (at least 750 mL each) were be prepared for each disinfecting treatment, and birds were immersed for a period of 1.5 hours. • f) Each 10 minutes during the 1.5 hour chilling period, the birds were completely lifted out of solution and then reimersed in the solution. After the 1.5 hour chilling period, the birds were taken from the chill water and drained for 30 seconds, then promptly (within 5 minutes) placed into a sterile whole bird stomacher bag containing 400 mL diluent (Butterfield's Phosphate Diluent) bacteria collection. • g) Diluent (400 mL) was added to each carcass contained in a sterile stomacher bag while making sure to pour the diluent into the inside of the abdominal cavity. The carcass was rinsed inside and out with a rocking motion for one minute (ca. 35 RPM). […] After the fluids had been diluted, 0.1 mL of fluid was be placed on a MacConkey agar plate and bacteria counts determined. In cases where the goal of a 25-250 count on the plate was not achieved, another dilution and replating were conducted. • j) After all carcasses for each treatment had been dipped, water sample bacteria were determined. • k) Total bacteria per bird were calculated. […]
# [2] = test system: Escherichia coli ATCC 11229; experiment: Bacteria count per bird over 20-day storage (Example 4); assay type: cell-based; conditions: pH 8
# Description: A study was conducted to determine the effect of Clorox® bleach, and 1,3-dibromo-5,5-dimethylhydantoin (DBDMH) on carcass bacteria residual after 1.5 hour in a chill tank solution and spoilage 20-day shelf life longevity (caused by bacteria contamination). Tests were conducted at pH 8 (adjusted by trisodium phosphate). Skin pigmentation (Minolta Color Meter L value or Lightness, a value or redness and b value or yellowness) were determined before and post-processing.
# In general the study involved normal processing of 56-day-old birds, immersing carcasses first in a warm bath containing 10^4 per mL Escherichia coli, 10^4 per mL Salmonella enteritidis, 10^4 per mL Pseudomonas aeruginosa, 10^4 per mL Campylobacter jejuni, and 10^4 per mL spoilage bacteria each from […] strains (Listeria monocytogenes and Shigella sonnei). Carcass were then immersed in a chill tank “soup”, containing normal organic fluids (blood, fat, skin, and meat particles) and containing various disinfectants (termed test materials).
# A DBDMH stock solution and test solutions, a bacteria stock solution, and a “chicken soup” were prepared as in Example 3. In addition, the bacterial broth treatments, the whole bird wash sampling procedure, and the methodologies used for quantitative or qualitative determinations for bacterial organisms were conducted as in Example 3.
# In greater detail the trial events and experimental design used in this group of tests were as follows: • a) Test microorganisms used were: • Escherichia coli ATCC 11229 • Pseudomonas aeruginosa ATCC 15442 • Salmonella enteritidis ATCC 13076 • Shigella sonnei ATCC 9290 • Listeria monocytogenes ATCC 7644 • Campylobacter jejuni ATCC 29428 • b) Test Procedure: All test strains were grown individually at 35° C. for 24 hours in the media specified in Table 12. Cells were harvested by centrifugation at 10,000×g for 10 minutes and washed twice with Butterfield's Phosphate Buffer (BPB of pH 7.2). Cells were resuspended in BPB to obtain a cell suspension of approximately 1.0×10^8 CFU/mL for each microorganism. The target inoculum levels were approximately 10^6 CFU/mL in the final test solutions. In the cases of S. enteritidis and P. aeruginosa the species were washed by pouring into prepared sterile centrifuge tubes with cheesecloth filters. The culture was then pelleted and washed using above techniques and repeated 3 times. • c) The birds (56 days old) were processed under normal commercial conditions. • d) The bacteria were added to a large batch of the “chicken soup”, and then aliquots of the resultant mixture were distributed equally among the chill waters used for each test. Then the particular disinfectant composition under test was added to one of the chill waters. […]
compound,measurement,setting,value
"CC1(C)C(=O)N(Br)C(=O)N1Br [DBDMH, 1,3-dibromo-5,5-dimethylhydantoin]",Whole Bird Bacteria Reduction (%),[1]; 50 ppm Cl2 (equivalent),99.9999%
same,Whole Bird Bacteria Reduction (%),[1]; 100 ppm Cl2 (equivalent),99.9999%
same,Whole Bird Bacteria Reduction (%),[1]; 150 ppm Cl2 (equivalent),99.9999%
same,"average bacteria count per bird, E. coli","[2]; Day 0, 10 ppm",861 per bird
same,"average bacteria count per bird, E. coli","[2]; Day 0, 20 ppm",22 per bird
same,"average bacteria count per bird, E. coli","[2]; Day 2, 10 ppm",966 per bird
same,"average bacteria count per bird, E. coli","[2]; Day 2, 20 ppm",31 per bird
same,"average bacteria count per bird, E. coli","[2]; Day 4, 10 ppm",1050 per bird
same,"average bacteria count per bird, E. coli","[2]; Day 4, 20 ppm",49 per bird
same,"average bacteria count per bird, E. coli","[2]; Day 6, 10 ppm",1124 per bird
same,"average bacteria count per bird, E. coli","[2]; Day 6, 20 ppm",100 per bird
same,"average bacteria count per bird, E. coli","[2]; Day 8, 10 ppm",1364 per bird
same,"average bacteria count per bird, E. coli","[2]; Day 8, 20 ppm",204 per bird
same,"average bacteria count per bird, E. coli","[2]; Day 10, 10 ppm",1621 per bird
same,"average bacteria count per bird, E. coli","[2]; Day 10, 20 ppm",401 per bird
same,"average bacteria count per bird, E. coli","[2]; Day 12, 10 ppm",2063 per bird
same,"average bacteria count per bird, E. coli","[2]; Day 12, 20 ppm",775 per bird
same,"average bacteria count per bird, E. coli","[2]; Day 14, 10 ppm",2581 per bird
same,"average bacteria count per bird, E. coli","[2]; Day 14, 20 ppm",1453 per bird
same,"average bacteria count per bird, E. coli","[2]; Day 16, 10 ppm",3005 per bird
same,"average bacteria count per bird, E. coli","[2]; Day 16, 20 ppm",2933 per bird
same,"average bacteria count per bird, E. coli","[2]; Day 18, 10 ppm",3617 per bird
same,"average bacteria count per bird, E. coli","[2]; Day 18, 20 ppm",3645 per bird
same,"average bacteria count per bird, E. coli","[2]; Day 20, 10 ppm",4460 per bird
same,"average bacteria count per bird, E. coli","[2]; Day 20, 20 ppm",4036 per bird
